22 compounds from PubChem BioAssay (NCI) can be followed below.

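Tested at 5 concentrations; 48 h exposure; 96-well plates; endpoints linearly interpolated, else capped at highest concentration. TGI marks complete inhibition of growth.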 Where a SMILES comes first, the peptide text is derived from it. [ ]: non-standard residue; d: D form. The star is where a group is joined. Boc = CC(C)(C)OC(=O)*; Lac = C[CH](O)C(=O)O; OBn = c1ccc(CO*)cc1 Bounds are passed on as bounds.

Common to all, as to experiment: inhibition of tumour cell growth, NCI panel, 48 h
Experiment [1] relates to A549 NSCLC.
Experiment [2] has as its system CAKI-1 renal.
Experiment [3] deals with HOP-62 NSCLC.
In experiment [4] the test system is NCI-H460 lung.
Experiment [5] deals with NCI-H522 lung.
Experiment [6] relates to OVCAR-4 ovarian.
The test system of experiment [7] is PC-3 prostate.
Experiment [8] has as its system SF-268 CNS.
For experiment [9], the system named is SK-MEL-28 melanoma.
For experiment [10], the system named is SNB-75 CNS.
Experiment [11] has as its system TK-10 renal.
The test system of experiment [12] is UACC-257 melanoma.
Experiment [13] has as its system SK-OV-3 ovarian.
Experiment [14] concerns HL-60(TB) leukemia.

For the compound `N=C(N)c1ccc(/C=C/c2ccc(C(=N)N)cc2)cc1`, the TGI in [1], in experiment [2], in experiment [3], in [4], in experiment [5] and in [6] was over 100 µM in each case. Further, the TGI in experiment [7] was over 100 µM; in [8], over 100 µM; in experiment [9] it was over 100 µM; in experiment [10], over 100 µM; in [11] it was 65.2 µM; in [12], over 100 µM.

`Cc1c(-c2ccc(O)cc2)n(CCCCCCNCCOC(=O)NCCCc2ccc(N(CCCl)CCCl)cc2)c2ccc(O)cc12`: the TGI was 3.93 µM in experiment [1]; 25.7 µM in [2]; 8.57 µM in experiment [3]; 5.05 µM in experiment [4]; 3.44 µM in [5]; 4.44 µM in [6]. In addition, the TGI came out at 11.4 µM in experiment [7]; 3.45 µM in experiment [8]; 13.8 µM in [9]; 22.4 µM in experiment [13]; 14.1 µM in experiment [10]; 6.06 µM in experiment [11]. Further, the TGI in [12] came out at 3.57 µM.

In the case of `CN(CC(=O)N1CC(CCl)c2ccc([N+](=O)[O-])cc21)CC(=O)N1CC(CCl)c2ccc([N+](=O)[O-])cc21` (configuration not stated), the TGI in experiment [1], in experiment [2], in experiment [14], in [3], in experiment [4] and in experiment [5] was over 100 µM each time. Further, the TGI in experiment [7], in [8], in [9], in experiment [13], in experiment [10] and in experiment [11] was over 100 µM throughout. In experiment [12], the TGI was over 100 µM.

With `Cc1nnc2n1N=C(c1ccccc1)/C(=C/c1ccc(-c3ccc(Cl)cc3)o1)S2`, the TGI turned out to be 49.4 µM in experiment [1]; 29.4 µM in experiment [2]; 28.4 µM in experiment [14]; 49.8 µM in [3]; 34.2 µM in [4]; 24.7 µM in experiment [5]. The TGI in [6] was 80 µM; in experiment [7], 26 µM; in experiment [8] it was 33.2 µM; in experiment [13], over 100 µM; in experiment [11], 26.4 µM; in experiment [12] it was 36.2 µM.

As to `CSC1=C(C#N)C(=S)N=C(N)C1C(=O)Nc1ccc(C)cc1` (configuration not stated), the TGI in experiment [1] is over 100 µM; in experiment [2] it was over 100 µM; in experiment [14], over 100 µM; in experiment [4] it was over 100 µM; in [5], 94.8 µM; in [6], over 100 µM. The TGI in experiment [7], in experiment [8], in [9], in [13], in [10] and in [11] was over 100 µM in each case. Moreover, the TGI in experiment [12] is over 100 µM.

`CN(C)CCCN1c2ccc([N+](=O)[O-])cc2CCc2cccc([N+](=O)[O-])c21`: the TGI in experiment [1] stood at 29.5 µM; in [14] it was 37 µM; in experiment [3] it was 27 µM; in [4], 29.2 µM; in experiment [5], 32.1 µM; in experiment [6], 13.9 µM. The TGI in [7] was determined as 42.8 µM; in experiment [8], 29 µM; in [9], 30.1 µM; in experiment [13], 30.8 µM; in experiment [10] it was 26.5 µM; in experiment [11], 23.2 µM. The TGI in [12] stood at 27.6 µM.

On to `Cc1ccc(-c2n[nH]c(Cc3nc(-c4ccc(C)cc4)n[nH]3)n2)cc1`, for which the TGI in experiment [1], in experiment [3], in experiment [5], in experiment [6], in [7] and in experiment [8] was over 100 µM in each case. In addition, the TGI in experiment [9], in experiment [13], in experiment [10], in experiment [11] and in experiment [12] was over 100 µM each time.

Take `Nc1ccccc1-c1noc(=O)[nH]1`: the TGI in experiment [1], in experiment [2], in experiment [3], in experiment [5], in experiment [6] and in [7] was over 100 µM throughout. The TGI in [8], in experiment [9], in experiment [13], in experiment [10], in [11] and in [12] was over 100 µM throughout.

Turning to `O=C1C=Cc2c(Br)sc(Br)c21`, the TGI in [1] was over 100 µM; in experiment [2] it was 41.1 µM; in [14] it was 58.7 µM; in experiment [3] it was 84.8 µM; in experiment [4], over 100 µM; in experiment [5], 68.2 µM. For the same compound, the TGI was 49.7 µM in [7]; over 100 µM in [8]; 84.9 µM in experiment [9]; over 100 µM in experiment [13]; over 100 µM in experiment [10]; 31.7 µM in experiment [11]. The compound also displayed a TGI in [12] of over 100 µM.

For the compound `Cc1ccc(S(=O)(=O)NC(=O)NC(CC(N)=O)C(=O)O)cc1` (configuration not stated), the TGI in [1], in experiment [14], in experiment [3], in [4], in experiment [5] and in [6] was over 100 µM each time. Moreover, the TGI in experiment [7], in experiment [8], in experiment [9], in experiment [13], in [10] and in experiment [11] was over 100 µM throughout. This compound also showed a TGI in experiment [12] of over 100 µM.

`Cc1cccc2oc3c(CC(=O)O)cccc3c(=O)c12`: the TGI in experiment [1], in experiment [2], in [14], in experiment [3], in [4] and in experiment [5] was over 100 µM throughout. Besides, the TGI in experiment [6], in experiment [7], in [8], in [9], in experiment [11] and in experiment [12] was over 100 µM throughout.

In the case of `CC1=NN(c2nc(N)nc(/C(C#N)=C/c3ccccc3O)n2)C(C)(C)C1`, the TGI was found to be 31.5 µM in experiment [1]; 36.9 µM in experiment [2]; 65.3 µM in experiment [14]; 38.8 µM in [3]; 40.9 µM in experiment [4]; 36 µM in experiment [5]. Moreover, the TGI in experiment [6] turned out to be 34.2 µM; in experiment [7], 31.6 µM; in experiment [8] it was 37.1 µM; in experiment [9], 30.8 µM; in experiment [13] it was 53.2 µM; in experiment [11], 58.4 µM. The compound further registered a TGI in [12] of 38.5 µM.

Consider `S=c1nc2sc3c(c2c(Nc2ccc(Cl)cc2)[nH]1)CCCC3`, for which the TGI in experiment [2], in experiment [14], in experiment [3], in experiment [4], in [5] and in experiment [6] was over 100 µM each time. In addition, the TGI in experiment [7], in experiment [8], in experiment [9], in [13], in experiment [11] and in experiment [12] was over 100 µM each time.

With `NC(CCCCCCCCCCP(=O)(O)O)C(=O)O` (configuration not stated), the TGI in experiment [1], in [2], in experiment [14], in experiment [4], in experiment [5] and in experiment [6] was over 100 µM in each case. The TGI in [7], in [9], in experiment [13], in experiment [10], in experiment [11] and in [12] was over 100 µM in each case.

Take `COC1(c2ccc(Cl)cc2)SC=C(C)n2c1noc2=O` (configuration not stated): the TGI in [1], in [2], in experiment [14], in experiment [4], in experiment [5] and in experiment [6] was over 100 µM each time. The TGI in experiment [7], in experiment [8], in [9] and in [12] was over 100 µM throughout.

`CC(OC(=O)C(Cc1ccccc1)NC(=O)C(Cc1ccccc1)NC(=O)OC(C)(C)C)C(=O)OCc1ccccc1` (stereo not drawn) (Boc-Phe-Phe-[Lac]-OBn; configuration not given here): the TGI in experiment [2], in experiment [14], in [3], in [4], in [5] and in experiment [7] was over 100 µM each time. Also, the TGI in [9], in [13] and in experiment [10] was over 100 µM in each case.

As to `Cc1sc(Nc2ccc(Nc3nc(-c4ccccc4)c(C)s3)cc2)nc1-c1ccccc1`, the TGI in [1], in [2], in [3], in experiment [4], in experiment [5] and in experiment [6] was over 100 µM throughout. For the same compound, the TGI was 48.4 µM in experiment [7]; over 100 µM in experiment [8]; over 100 µM in [9]; over 100 µM in experiment [13]; over 100 µM in experiment [10]; over 100 µM in experiment [11]. The compound further registered a TGI in experiment [12] of over 100 µM.

On to `C/C=C/C(C#N)(/C=C/c1ccccc1)OP1(=O)OC(c2ccccc2)C(C)N1C` (configuration not stated), for which the TGI was 45.4 µM in experiment [1]; 54.8 µM in experiment [2]; 32.9 µM in [14]; 36.1 µM in [3]; 33.8 µM in [4]; 42.2 µM in [5]. Besides, the TGI in experiment [7] worked out at 33.3 µM; in experiment [8], 42.1 µM; in experiment [9], 32.7 µM; in experiment [13], 55.3 µM; in [10], 39.4 µM; in [11], 37.8 µM. The same compound showed a TGI in [12] of 35.1 µM.

With `COc1cc(NC(C)c2ccc3c(c2)OCCO3)cc(OC)c1OC` (configuration not stated), the TGI in [1] is over 100 µM; in experiment [2] it was over 100 µM; in [14] it was 48.6 µM; in experiment [3], over 100 µM; in experiment [4], over 100 µM; in [5], 48.9 µM. Further, the TGI in [6], in [7], in experiment [8], in experiment [9], in experiment [11] and in experiment [12] was over 100 µM each time.

As for `NC1c2c(Br)sc(N3CCCC3)c2C(=O)C1O` (configuration not stated), the TGI in [1], in experiment [2], in experiment [14], in [4], in [5] and in experiment [6] was over 50 µM each time. Besides, the TGI in experiment [7], in experiment [8], in [13], in experiment [10], in experiment [11] and in [12] was over 50 µM in each case.

As to `CCCN(CCC)CCc1ccc(OC2=CCN(C)CC2)cc1`, the TGI is over 100 µM in experiment [1]; over 100 µM in experiment [2]; over 100 µM in experiment [14]; over 100 µM in [3]; 67 µM in [5]; over 100 µM in [6]. Besides, the TGI in experiment [7] was over 100 µM; in experiment [8], over 100 µM; in experiment [9] it was 91.7 µM; in experiment [13] it was over 100 µM; in experiment [11], over 100 µM; in experiment [12] it was 43.9 µM.

Take `CC(=O)Nc1oc(C)c(C)c1S(=O)(=O)c1ccc(Cl)cc1`: the TGI was over 100 µM in experiment [1]; over 100 µM in [14]; over 100 µM in experiment [4]; over 100 µM in experiment [5]; over 100 µM in experiment [6]; 83.4 µM in experiment [7]. Moreover, the TGI in experiment [8], in experiment [9], in experiment [13], in experiment [10], in experiment [11] and in experiment [12] was over 100 µM in each case.
